These results are taken from patent US11339130B1 (Blade Therapeutics, Inc., priority 2016, dated 2022).

One experiment concerns the target T1, Human Calpain 9/NS1 (Homo sapiens, UniProt O14815).
T1 sequence (O14815 1-690): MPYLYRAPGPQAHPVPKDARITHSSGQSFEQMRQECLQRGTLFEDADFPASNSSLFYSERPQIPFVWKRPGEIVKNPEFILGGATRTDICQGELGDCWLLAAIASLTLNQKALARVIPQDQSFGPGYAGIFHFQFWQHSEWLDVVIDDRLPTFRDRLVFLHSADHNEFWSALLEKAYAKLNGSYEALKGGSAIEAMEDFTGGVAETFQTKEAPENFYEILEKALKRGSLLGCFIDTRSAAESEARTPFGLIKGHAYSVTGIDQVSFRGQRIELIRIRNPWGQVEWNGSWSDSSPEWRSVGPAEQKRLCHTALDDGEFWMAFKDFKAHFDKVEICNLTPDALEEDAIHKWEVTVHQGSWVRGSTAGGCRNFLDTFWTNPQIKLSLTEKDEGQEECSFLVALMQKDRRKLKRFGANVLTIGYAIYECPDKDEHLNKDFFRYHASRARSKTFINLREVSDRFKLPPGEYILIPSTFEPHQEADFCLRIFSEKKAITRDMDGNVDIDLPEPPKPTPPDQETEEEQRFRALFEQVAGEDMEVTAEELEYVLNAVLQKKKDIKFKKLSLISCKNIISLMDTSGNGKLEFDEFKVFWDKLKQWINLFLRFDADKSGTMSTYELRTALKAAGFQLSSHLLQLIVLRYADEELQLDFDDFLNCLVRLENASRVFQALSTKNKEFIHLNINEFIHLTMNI
T1 sequence (P04632 1-268 partner): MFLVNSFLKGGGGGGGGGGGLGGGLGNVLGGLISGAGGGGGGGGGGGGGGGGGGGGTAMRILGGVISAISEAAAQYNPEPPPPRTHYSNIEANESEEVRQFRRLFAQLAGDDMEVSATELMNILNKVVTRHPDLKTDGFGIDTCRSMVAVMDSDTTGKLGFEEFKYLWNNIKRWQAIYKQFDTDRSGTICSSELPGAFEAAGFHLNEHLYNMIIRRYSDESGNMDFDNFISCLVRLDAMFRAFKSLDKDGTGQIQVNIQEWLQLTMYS
As to the kind of experiment: Calpain inhibition continuous fluorescence (FRET) assay, Human Calpain 9/NS1. Conditions: read-out: Human Calpain 9/NS1 IC50. Format: biochemical. Put shortly:
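Continuous FRET read (ex 490/em 520 nm, 10 min) of calpain 1, 2 or 9 cleaving an internally quenched 5-FAM peptide, triggered by substrate with CaCl2 after enzyme–inhibitor incubation at ambient 25 °C, pH 7.5 Tris/NaCl/DTT buffer. IC50 from initial rates (1-5 min) via 4-parameter fit.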

The subject of experiment [1] is Bleomycin-induced pulmonary fibrosis. The experiment is described as follows: Bleomycin-induced pulmonary fibrosis in mice (14 d). Format: in vivo. Also noted: concentration or dose not given beside the values. From the text:
The method for inducing pulmonary fibrosis in mice is described in Current Protocols in Pharmacology: 5.46.1, entitled “Mouse Models of Bleomycin-induced Pulmonary Fibrosis”. In order to induce pulmonary fibrosis, 6-8 week old C57B1/6 mice or Wistar rats are instilled once oropharyngeally with ˜1.5 U/kg of bleomycin sulfate (Calbiochem, Billerica, Mass.). Briefly, for oropharyngeal administration of bleomycin, mice or rats are anesthetized with isofluorane and then suspended on its back at a˜60 degree angle on an inclined surface with a rubber band running under the upper incisors. The airway is opened while securing the tongue with one arm of padded forceps and bleomycin is administered into the back of the oral cavity with a syringe. The animal's tongue and mouth were held open until the liquid disappeared from the oral cavity. The animal was then returned to its cage and monitored until fully recovered from the anesthesia. The study is terminated on day 14-28 for oropharyngeally administered bleomycin in mice and rats. All animals are euthanized at the termination of the studies by cervical dislocation for gross necropsy, and blood collected by cardiac puncture. The lungs from each animal are dissected from the animal and weighed. The BAL cells and fluid are collected by lavaging the lung twice with 0.5 ml Hanks Balanced Salt Solution (HBSS; VWR, Radnor, Pa.). After collection of BAL cells and fluid, lungs are dissected and removed from each animal. Whole lungs are inflated with 10% NBF and then fixed in 10% NBF for histology. Severity of fibrosis in the lungs is evaluated using a modified Ashcroft score (Hubner, Biotechniques, 2008) and subjective fibrosis scores. Lung sections were graded by averaging 5 microscopic fields at 20× on an Ashcroft scale as follows: Grade 0=normal lung; Grade 1=minimally detectable thickening of alveolar walls; Grade 2=Mild thickening of alveolar walls. Grade 3=moderate contiguous thickening of walls with fibrous nodules; Grade 4=Thickened septae and confluent fibrotic masses that total less than 10% of microscopic field. Grade 5=increased fibrosis with definite damage to lung structure and formation of fibrous bands or small fibrous masses between 10 and 50% of microscopic field; Grade 6=Large contiguous fibrotic masses consolidating more than 50% of microscopic field. Grade 7=severe distortion of structure and large fibrous areas; Grade 8=total fibrous obliteration of lung within microscopic field. Each slide was examined at 20× magnification and the score for 5 separate representative fields was averaged for each animal. Subjective scores (H&E and Trichrome-stained slides) were evaluated at 2× magnification for an overall assessment of pathologic change. A score of 0=no detectible findings to 5=complete involvement of consolidation. Scores in each group were averaged and standard error was calculated using Excel 2010. Dense, organized inflammatory exudates were scored as fibrosis. Other tissues were evaluated microscopically and scored routinely.

Where two headings read alike, the source gives them in different places. Bounds are passed on as bounds.

For `Cn1cc(C(=O)N[C@@H](Cc2ccccc2)C(=O)C(N)=O)c(-c2ccccc2)n1` [Compound 32, (S)—N-(4-amino-3,4-dioxo-1-phenylbutan-2-yl)-1-methyl-3-phenyl-1H-pyrazole-4-carboxamide], on Human Calpain 9/NS1 (Column C), the IC50 was less than 3 µM.

With `NC(=O)C(=O)[C@H](Cc1ccccc1)NC(=O)c1snnc1-c1ccccc1` [Compound 44, (S)—N-(4-amino-3,4-dioxo-1-phenylbutan-2-yl)-4-phenyl-1,2,3-thiadiazole-5-carboxamide], the IC50 at Human Calpain 9/NS1 (Column C) is less than 3 µM.

Regarding `NC(=O)C(=O)[C@H](Cc1ccccc1)NC(=O)c1cnoc1-c1ccccc1` [Compound 60, (S)—N-(4-amino-3,4-dioxo-1-phenylbutan-2-yl)-5-phenylisoxazole-4-carboxamide], the IC50 on Human Calpain 9/NS1 (Column C) was less than 3 µM. Moreover, the “% reduction compared to vehicle” value in experiment [1] is reported as −24%.

Take `NC(=O)C(=O)[C@H](Cc1ccccc1)NC(=O)c1nsnc1-c1ccccc1` [Compound 72, (S)—N-(4-amino-3,4-dioxo-1-phenylbutan-2-yl)-4-phenyl-1,2,5-thiadiazole-3-carboxamide]: at Human Calpain 9/NS1 (Column C), the IC50 is less than 3 µM. Also, the “% reduction compared to vehicle” value in experiment [1] is recorded as −35%.

With `NC(=O)C(=O)[C@H](Cc1ccccc1)NC(=O)c1cn(C2CC2)nc1-c1ccccc1` [Compound 250, (S)—N-(4-amino-3,4-dioxo-1-phenylbutan-2-yl)-1-cyclopropyl-3-phenyl-1H-pyrazole-4-carboxamide], at Human Calpain 9/NS1 (Column C), the IC50 was less than 3 µM.

On to `CCCC[C@H](NC(=O)c1oc(C)nc1-c1ccccc1)C(=O)C(N)=O` [Compound 265, (S)—N-(1-amino-1,2-dioxoheptan-3-yl)-2-methyl-4-phenyloxazole-5-carboxamide], for which the IC50 on Human Calpain 9/NS1 (Column C) is less than 3 µM.

For `Cc1nc(-c2ccccc2)c(C(=O)NC(Cc2ccccc2)C(=O)C(N)=O)o1` (stereo not drawn) [Compound 357, N-(4-amino-3,4-dioxo-1-phenylbutan-2-yl)-2-methyl-4-phenyloxazole-5-carboxamide], the IC50 at Human Calpain 9/NS1 is less than 3 µM. Further, in experiment [1], the “% reduction compared to vehicle” value is recorded as −13%.

Take `NC(=O)C(=O)C(Cc1ccccc1)NC(=O)c1cn(C(F)F)nc1-c1ccccc1` (stereo not drawn) [Compound 403, N-(4-amino-3,4-dioxo-1-phenylbutan-2-yl)-1-(difluoromethyl)-3-phenyl-1H-pyrazole-4-carboxamide]: the IC50 at Human Calpain 9/NS1 is less than 3 µM. Further, in experiment [1], the “% reduction compared to vehicle” value was −29%.

As to `Cc1nc(-c2cccc(F)c2)c(C(=O)NC(Cc2ccccc2)C(=O)C(N)=O)o1` (stereo not drawn) [Compound 404, N-(4-amino-3,4-dioxo-1-phenylbutan-2-yl)-4-(3-fluorophenyl)-2-methyloxazole-5-carboxamide], the IC50 on Human Calpain 9/NS1 was less than 3 µM. In addition, the “% reduction compared to vehicle” value in experiment [1] is listed as −24%.

With `Cc1nc(-c2ccccc2F)c(C(=O)NC(Cc2ccccc2)C(=O)C(N)=O)o1` (stereo not drawn) [Compound 405, N-(4-amino-3,4-dioxo-1-phenylbutan-2-yl)-4-(2-fluorophenyl)-2-methyloxazole-5-carboxamide], the IC50 on Human Calpain 9/NS1 is less than 3 µM. Besides, the “% reduction compared to vehicle” value in experiment [1] is reported as −33%.

For the compound `NC(=O)C(=O)C(Cc1ccccc1)NC(=O)c1cn(C2CC2)nc1-c1ccccc1` (stereo not drawn) [Compound 406, N-(4-amino-3,4-dioxo-1-phenylbutan-2-yl)-1-cyclopropyl-3-phenyl-1H-pyrazole-4-carboxamide], the IC50 at Human Calpain 9/NS1 is less than 3 µM. Also, in experiment [1], the “% reduction compared to vehicle” value is on record as −25%.

As to `Cn1cc(C(=O)NC(Cc2ccccc2)C(=O)C(N)=O)c(-c2ccccc2F)n1` (stereo not drawn) [Compound 484, N-(4-amino-3,4-dioxo-1-phenylbutan-2-yl)-3-(2-fluorophenyl)-1-methyl-1H-pyrazole-4-carboxamide], the IC50 on Human Calpain 9/NS1 is less than 3 µM. In experiment [1], the “% reduction compared to vehicle” value was −35%.

In the case of `Cl.Cn1cc(C(=O)NC(Cc2ccccc2)C(=O)C(N)=O)c(-c2cccc(F)c2)n1` (stereo not drawn) [Compound 485, N-(4-amino-3,4-dioxo-1-phenylbutan-2-yl)-3-(3-fluorophenyl)-1-methyl-1H-pyrazole-4-carboxamide hydrochloride], at Human Calpain 9/NS1, the IC50 is less than 3 µM. In addition, the “% reduction compared to vehicle” value in experiment [1] is −41%.

For `Cc1cc(C(=O)NC(Cc2ccccc2)C(=O)C(N)=O)n(-c2ccccn2)n1` (stereo not drawn) [Compound 495, N-(4-amino-3,4-dioxo-1-phenylbutan-2-yl)-3-methyl-1-(pyridin-2-yl)-1H-pyrazole-5-carboxamide], the IC50 on Human Calpain 9/NS1 was less than 3 µM. For the same compound, the “% reduction compared to vehicle” value in experiment [1] was −27%.
